Measurements from patent US10000771B2, “Nuclear targeting sequences” (Yeda Research and Development Co. Ltd., priority 2007, dated 2018).
Ends that are not written are not given here.

Key:
CHO cells [1] = experiment: Microscopy of MEK1-GFP constructs (subcellular localization); assay type: cell-based
Method: FIGS. 14A-14R are photomicrographs illustrating that the NTS motif regulates MEK1 shuttling into the nucleus. CHO cells overexpressing WT-GFP-MEK1 (WT), AAA-GFP-MEK1 (AAA-MEK) and EPE-GFP-MEK1 (EPE-MEK) were starved for 16 hr and treated with LMB (5 ng/ml, 1 hr; LMB), LMB (5 ng/ml, 1 hr)+TPA (250 nM, 15 min; LMB+TPA) or left un treated (NT). Subsequently the cells were fixed, stained with DAPI and visualized by a fluorescent microscope.
(§1) Immunofluorescence Microscopy. Cells were fixed (30 min in 3% paraformaldehyde in PBS or 10 min with ice-cold methanol), followed by 5-min permeabilization with 0.2% Triton X-100 in PBS (23° C.). The fixed cells were sequentially incubated with the appropriate Abs (45 min) followed by rhodamine-conjugated secondary Abs (45 min) and DAPI. Slides were visualized using a fluorescence microscope (Nikon, Japan) at 400× magnifications.
Other proteins that translocate into the nucleus upon stimulation are the MEKs [H. Jaaro, H. Rubinfeld, T. Hanoch, R. Seger, Proc. Natl. Acad. Sci. USA 94, 3742 (1997)]. […] This TPT sequence was also shown to be phosphorylated upon cellular stimulation [S. Matsuda, Y. Gotoh, E. Nishida, J Biol Chem 268, 3277 (Feb. 15, 1993)], and to be involved in protein-protein interaction that can determine subcellular localization [A. Nantel, K. Mohammad-Ali, J. Sherk, B. I. Posner, D. Y. Thomas, J Biol Chem 273, 10475 (Apr. 24, 1998). […]

COS7 cells = experiment: Subcellular fractionation of 2GFP chimeras; assay type: cell-based
Method: FIG. 9A is an autoradiograph illustrating the subcellular fractionation of transfected SPS, APA, and EPE peptides fused to a 2GFP in COS7 cells. Western blot analysis of aliquots of the fractions were stained with anti GFP Ab to detect the different chimaras, and with anti tubulin and anti c-Jun Abs as markers for the cytoplasmic and nuclear fractions respectively.
Cellular Fractionation: Transfected COS7 cells were starved (0.1% FBS) for 16 h, after which they were washed with ice-cold PBS, suspended in ice-cold buffer H, and centrifuged (12,000×g, 5 min). Then, the nuclear and cytosolic fractions were isolated as described [H. Rubinfeld, T. Hanoch, R. Seger, J. Biol. Chem. 274, 30349 (1999)]. Briefly, the pellets were suspended in 0.1% NP-40 followed by centrifugation (12,000×g, 5 min). The supernatant, containing the cytosolic fraction, was boiled in sample buffer. The pellet was suspended in extraction buffer (420 mM Nacl, 50 mM β-glycerophosphate, 0.5 mM Na3VO4, 1.5 mM MgCl2, 0.2 mM EDTA, 1 mM DTT, 25% glycerol), incubate on ice for 10 min, sonicated (50 W, 2×7 sec), and centrifuged (12,000×g, 5 min). The supernatant, containing the nuclear fraction, was subjected to Western blot.

CHO cells [2] = experiment: Fluorescence microscopy of 2GFP chimeras (subcellular localization); assay type: cell-based; conditions: 24 hr post transfection, serum-starved
Method: FIGS. 8A-8H are photomicrographs illustrating that SPS, APA, and EPE peptides fused to a 2GFP chimera modify its subcellular localization. CHO cells were grown on cover slips and transfected with 19 amino acid from the kinase insert domain of ERK2 including the SPS region (GFP-SPS) fused to a 2GFP chimera and with the same chimeras with substitution of the Ser to Ala (GFP-APA) or substitution to Glu (GFP-EPE). Twenty-four hr later, the cells were serum-starved for 16 hr, fixed, stained with DAPI and visualized by a fluorescence microscope.
as §1
To validate the general importance of the SPS domain, a 19 amino acid sequence surroundings the SPS or the APA and EPE mutants was fused to a dimer of GFP proteins (2GFP). Cellular distribution of the chimeras was detected in CHO cells 24 hr post transfection of the GFP constructs.

importin-7 = biological target: T1, importin-7 (Homo sapiens, UniProt O95373); experiment: Coimmunoprecipitation with importin-7; assay type: binding; conditions: HeLa cells, coimmunoprecipitation, without EGF stimulation
T1 construct: endogenous in cells; host or cells: HeLa
T1 sequence (O95373 whole entry): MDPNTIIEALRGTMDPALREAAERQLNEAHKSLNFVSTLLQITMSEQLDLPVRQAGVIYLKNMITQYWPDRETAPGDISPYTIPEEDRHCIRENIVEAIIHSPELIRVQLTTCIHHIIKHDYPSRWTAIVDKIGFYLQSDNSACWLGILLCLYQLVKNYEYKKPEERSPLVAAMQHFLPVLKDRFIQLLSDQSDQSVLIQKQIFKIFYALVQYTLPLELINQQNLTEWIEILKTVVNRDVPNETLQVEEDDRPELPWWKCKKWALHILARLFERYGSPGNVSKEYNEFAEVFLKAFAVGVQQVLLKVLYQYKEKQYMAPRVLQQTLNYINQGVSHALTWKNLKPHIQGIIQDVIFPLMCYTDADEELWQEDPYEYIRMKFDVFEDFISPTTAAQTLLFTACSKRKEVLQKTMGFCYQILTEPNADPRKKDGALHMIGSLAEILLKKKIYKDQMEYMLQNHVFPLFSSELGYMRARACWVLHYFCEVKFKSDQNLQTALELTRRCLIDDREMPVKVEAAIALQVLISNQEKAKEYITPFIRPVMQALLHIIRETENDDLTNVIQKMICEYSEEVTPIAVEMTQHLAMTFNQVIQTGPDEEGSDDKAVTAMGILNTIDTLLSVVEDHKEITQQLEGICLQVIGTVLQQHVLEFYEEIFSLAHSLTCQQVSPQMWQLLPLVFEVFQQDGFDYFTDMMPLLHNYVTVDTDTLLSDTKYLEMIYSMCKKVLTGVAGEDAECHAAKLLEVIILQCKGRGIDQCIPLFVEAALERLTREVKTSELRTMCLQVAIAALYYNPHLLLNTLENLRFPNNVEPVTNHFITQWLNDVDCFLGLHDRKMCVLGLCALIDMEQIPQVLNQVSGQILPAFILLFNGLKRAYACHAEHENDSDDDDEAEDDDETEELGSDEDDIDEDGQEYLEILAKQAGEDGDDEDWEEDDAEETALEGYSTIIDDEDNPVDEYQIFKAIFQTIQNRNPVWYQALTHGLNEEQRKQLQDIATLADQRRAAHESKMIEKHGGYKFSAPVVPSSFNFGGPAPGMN
Method: FIGS. 19A-19C are autoradiographs illustrating that phospho-SPS interacts with importin-7 and releases Nup153c binding without involvment of importin-β. […]. Interaction of ERK2 with Importin-7 is enhanced by EGF stimulation and EPE mutation. HeLa cells overexpressing WT-ERK (WT), ERK-APA (APA), ERK-EPE (EPE) or GFP were serum starved and treated with EGF (50 ng/ml, 10 min). The extracts of the treated cells were then subjected to coimmunoprecipitation using A/G beads pre-conjugated with anti GFP Ab and mild washes. The coimmunoprecipitated importin-7 (first panel) and importin-β (third panel), as well as their loading amounts (panels 2 and 4 respectively) were determined by WB using anti importin-7 (αImp7) and importin-β (αImpβ) Abs. The equal amount of immunoprecipitated ERKs was determined with anti GFP (αGFP; IP) Ab. FIG. 19B. Interaction of 2GFP-SPS and its mutants with importin-7. HeLa cells overexpressing 2GFP, 2GFP-SPS, 2GFP-APA and 2GFP-EPE constructs were subjected to coimmunoprecipitation as described in FIG. 19A (without EGF stimulation). FIG. 19C. Interaction of NUP153 with WTERK2 and its APA and EPE mutants. NUP153c is elevated in APA-ERK2, but reduced in EPE-ERK2. Immunoprecipitated and stringently washed WT-ERK2 (WT), APA-ERK2 (APA) or ERK2 from […] cells pre-treated with or without TPA (250 nM, 15 min) were incubated with 0.5 μg recombinant His-Nup153c. This was followed by mild washing, and the beads were then subjected to Western blot analysis using anti His (αHis) and anti αGFP Abs.
Immunoprecipitation. Cellular extracts of stimulated transfected cells, were incubated with anti-GFP antibody preconugated to A/G beads (Santa Cruz; (2 hr, 4° C.). Subsequently, the beads were washed twice with HNTG buffer and once with 0.5 M LiCl. The immunoprecipitates were subjected either to Western blotting as described above or to an in vitro phosphatase assay as described under Results.

endogenous ERKs = experiment: Effect of 2GFP chimeras on nuclear translocation of endogenous ERKs; assay type: cell-based; conditions: CHO cells overexpressing the chimera, TPA 250 nM, 15 min
Method: FIGS. 10A-10X illustrate the effects of the 2GFP chimeras on the nuclear translocation of endogenous ERKs. CHO cells overexpressing 2GFP, 2GFP-SPS, 2GFP-APA and 2GFP-EPE were serum starved and treated with or without TPA (250 nM, 15 min). Subsequently, the cells were fixed and stain with anti-ERK2 (C-14) Ab and with DAPI.
as §1

SPS domain = experiment: SPS phosphorylation detected by anti pSPS Ab Western blot; assay type: cell-based; conditions: cells pretreated (15 min) prior to EGF 50 ng/ml stimulation
Method: FIGS. 4A-4I are autoradiographs characterizing SPS phosphorylation using an Ab to the phosphorylated SPS domain. FIG. 4A illustrates an elevation of pSPS detection upon stimulation. COS cells were transfected with WT-GFP-ERK2. Twenty-four hr after transfection, the cells were serum-starved for 16 hr and subsequently treated with the general stimulator VOOH (V, 100 μM Na3VO4 and 200 μM H2O2, 15 min), TPA (T, 250 nM, 15 min), EGF (E, 50 ng/ml for 15 min), or left untreated (NT). The GFP-ERK2 was immunoprecipitated with anti GFP Ab, extensively washed, and the IP was then subjected to Western blotting with anti phospho SPS-ERK (αphoSPS-ERK) and anti general ERK (αgen-ERK) Abs. FIG. 4B is a time course of SPS phosphorylation. COS7 cells overexpressing WT-GFP-ERK2 were serum starved followed by EGF stimulation for the indicated time points. The lysates were then subjected to Western blot analysis as in FIG. 4A. FIGS. 4C-D. GFP-ERK2 was immunoprecipitated from VOOH stimulated (Act) or non-stimulated (NT), transfected COS7 cells as above. The immunoprecipitated protein was then incubated with shrimp's alkaline phosphates (SAP, 15 units, 30 min, 30° C. in the manufacturer digestion buffer), and subjected to Western blot analysis with anti phosphoSPS-ERK (αpSPS; FIG. 4C), anti phosphoTEY-ERK (αpTEY; FIG. 4D), and anti general-ERK Ab (αgen-ERK; FIGS. 4C, D). FIG. 4E. Elevation of anti pSPS Ab immunoreactivity upon stimulation of endogenous ERKs. Following serum starvation COS7 cells were treated with EGF (50 ng/ml) or VOOH (V, 100 μM Na3VO4 and 200 μM H2O2) for the indicated times. SPS phosphorylation was detected using the anti pSPS Abs, and this was compared to the amount of genral ERKs detected by αgERK. FIG. 4F. Specificity of the anti pSPS Ab. COS7 cells overexpressing either GFP-ERK2 or 244-6A mutant were serum starved for 16 hr, and then treated with EGF (50 ng/ml) for 15 min following WB analysis using αpSPS and αgERK Abs. FIG. 4G. TEY phosphorylation is not required for SPS phosphorylation. COS7 cells overexpressing WT-ERK2 or TEY-AAA were treated as described in D. FIG. 4H. COS7 cells were treated with or without UO126 prior (15 min) to EGF (50 ng/ml) stimulation for the indicated times. SPS-phosphorylation was detected using αpSPS and αgERK Abs. FIG. 4I. Phosphorylation of SPS is mediated by ERK autophosphorylation. […] The phosphorylation (^32P-ERK2) of ERK and its mutants was detected by autoradiography. […]
FIG. 9B is an autoradiograph illustrating that stimulation elevates pSPS phosphorylation of 2GFP-SPS construct. […] The total amount of immunoprecipitated 2GFP-SPS was detected with αGFP Ab. […]

| interaction of 2GFP constructs with importin-7 (importin-7) | Compound | nuclear accumulation after TPA stimulation (CHO cells [1]; LMB 5 ng/ml + TPA 250 nM, 15 min) | nuclear translocation after leptomycin B (CHO cells [1]; LMB 5 ng/ml, 1 hr) | localized in the nucleus (COS7 cells) [%] | cellular distribution (CHO cells [2]) | inhibition of TPA-induced translocation of endogenous ERKs (endogenous ERKs) | anti pSPS Ab reaction with GFP-ERK2 after inhibitor pretreatment (SPS domain) |
| --- | --- | --- | --- | --- | --- | --- | --- |
| – | EPE-MEK1: GFP-MEK1 with residues 386 and 388 replaced with Glu | localized in the nucleus even without stimulation | increased | – | – | – | – |
| elevated it | 2GFP-EPE: 2GFP-WT with the Ser residues in the SPS domain mutated to Glu (LDQLNHILGILGEPEQEDL; also: fused to 2GFP (large carrier)) | – | – | 90 | mainly in the nucleus | – | – |
| reduced this interaction | 2GFP-APA: 2GFP-WT with the Ser residues in the SPS domain mutated to Ala (LDQLNHILGILGAPAQEDL; also: fused to 2GFP (large carrier)) | – | – | 3 | mainly in the cytoplasm and perinuclear region | more so | – |
| – | N#CC(=C(/N)Sc1ccccc1N)/C(C#N)=C(\N)Sc1ccccc1N [U0126, reference compound] | – | – | – | – | – | did not react |
